24 compounds from patent US20070049593A1 (priority 2004, published 2007) can be followed below.

The target in this assay is T1, HCV polymerase (Hepatitis C virus genotype 1b, UniProt P26663).
T1 construct: a region encoding NS5B (J Virol 1991 March, 65(3), 1105-13, 544 amino acids after deletion of 47 amino acids on the C-terminal); 6xHis (C); made in house; host or cells: Escherichia coli
T1 sequence (P26663 2420-2963): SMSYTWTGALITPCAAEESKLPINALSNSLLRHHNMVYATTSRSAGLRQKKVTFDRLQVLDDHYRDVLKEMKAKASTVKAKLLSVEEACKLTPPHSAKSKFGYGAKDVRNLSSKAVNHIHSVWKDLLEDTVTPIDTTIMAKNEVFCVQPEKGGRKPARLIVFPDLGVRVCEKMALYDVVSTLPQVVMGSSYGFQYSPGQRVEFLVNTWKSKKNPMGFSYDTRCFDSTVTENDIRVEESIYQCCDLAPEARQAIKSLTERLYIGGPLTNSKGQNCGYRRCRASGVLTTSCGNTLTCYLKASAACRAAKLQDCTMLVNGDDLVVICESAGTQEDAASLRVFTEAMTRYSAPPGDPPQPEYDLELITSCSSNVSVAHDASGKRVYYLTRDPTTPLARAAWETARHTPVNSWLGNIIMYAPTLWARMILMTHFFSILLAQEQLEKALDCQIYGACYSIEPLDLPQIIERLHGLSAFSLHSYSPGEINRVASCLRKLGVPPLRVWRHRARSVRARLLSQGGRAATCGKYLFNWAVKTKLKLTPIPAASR
Put plainly: biochemical. The arrangement: species or system HCV BK strain. Summed up: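 His-tagged NS5B (BK strain, 47-aa C-terminal deletion, E. coli-expressed) at 0.5 μg/ml copied 5 μg/ml run-off RNA bearing the HCV 3′ UTR with 2 μM UTP plus [3H]UTP, 50 μM ATP/GTP, in pH 7.5 Tris with 5 mM MgCl2, 25 °C, 90 min. TCA-precipitated RNA was counted and IC50 calculated.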
As usually defined, the IC50 is the midpoint of a concentration-inhibition curve. The low end stands for inhibition by little substance, the high end for a need for much substance. In the case of `COc1ccc2c(c1)OCCn1c-2c(C2CCCCC2)c2ccc(C(=O)NC(C)(C)c3nc4cc(C(=O)O)ccc4c(=O)[nH]3)cc21` [Example 2-403, 2-{1-[(12-cyclohexyl-3-methoxy-6,7-dihydro-5-oxa-7a-azadibenzo[a,e]azulene-9-carbonyl)amino]-1-methylethyl}-4-oxo-3,4-dihydroquinazoline-7-carboxylic acid], the IC50 was less than 100 nM. The same measure for `COc1ccc2c(c1)OCCn1c-2c(C2CCCCC2)c2ccc(C(=O)NC(C)(C)c3nc(N(C)C)c4ccc(C(=O)O)cc4n3)cc21` [Example 2-404, 2-{1-[(12-cyclohexyl-3-methoxy-6,7-dihydro-5-oxa-7a-azadibenzo[a,e]azulene-9-carbonyl)amino]-1-methylethyl]-4-dimethylaminoquinazoline-7-carboxylic acid]: less than 100 nM. The same measure for `COc1ccc2c(c1)OCCn1c-2c(C2CCCCC2)c2ccc(C(=O)NC(C)(C)c3nc4cc(CO)ccc4[nH]3)cc21` [Example 2-405, N-[1-(5-hydroxymethyl-1H-benzimidazol-2-yl)-1-methylethyl]-12-cyclohexyl-3-methoxy-6,7-dihydro-5-oxa-7a-azadibenzo[a,e]azulene-9-carboxamide]: less than 100 nM. In turn, `COc1ccc2c(c1)OCCn1c-2c(C2CCCCC2)c2ccc(C(=O)NC3(C(=O)Nc4ccc(C(C)(C)C(=O)O)cc4)CCC3)cc21` [Example 2-406, 2-[4-({1-[(12-cyclohexyl-3-methoxy-6,7-dihydro-5-oxa-7a-azadibenzo[a,e]azulene-9-carbonyl)amino]cyclobutanecarbonyl}amino)phenyl]-2-methylpropionic acid] yielded an IC50 of less than 100 nM. The same measure for `COC(=O)Nc1ccc(C[C@H](NC(=O)c2ccc3c(C4CCCCC4)c4n(c3c2)CCOc2cc(OC)ccc2-4)c2nc(C)no2)cc1` [Example 2-407, methyl {4-[(S)-2-[(12-cyclohexyl-3-methoxy-6,7-dihydro-5-oxa-7a-azadibenzo[a,e]azulene-9-carbonyl)amino]-2-(3-methyl-1,2,4-oxadiazol-5-yl)ethyl]phenyl}carbamate]: less than 100 nM; for `COc1ccc2c(c1)OCCn1c-2c(C2CCCCC2)c2ccc(C(=O)NC(C)(C)c3nc4ccccc4[nH]3)cc21` [Example 2-408, N-[1-(1H-benzimidazol-2-yl)-1-methylethyl]-12-cyclohexyl-3-methoxy-6,7-dihydro-5-oxa-7a-azadibenzo[a,e]azulene-9-carboxamide]: less than 100 nM; for `COc1ccc2c(c1)OCCn1c-2c(C2CCCCC2)c2ccc(C(=O)NC3(c4nc5ccc(C(=O)O)cc5[nH]4)CCOCC3)cc21` [Example 2-409, 2-{4-[(12-cyclohexyl-3-methoxy-6,7-dihydro-5-oxa-7a-azadibenzo[a,e]azulene-9-carbonyl)amino]tetrahydropyran-4-yl]-3H-benzimidazole-5-carboxylic acid]: less than 100 nM.

The compound `COc1ccc2c(c1)OCCn1c-2c(C2CCCCC2)c2ccc(C(=O)N[C@@H](Cc3ccc(NC(=O)OCc4ccccc4)cc3)c3csc(C)n3)cc21` [Example 2-410, benzyl (4-[(S)-2-[(12-cyclohexyl-3-methoxy-6,7-dihydro-5-oxa-7a-azadibenzo[a,e]azulene-9-carbonyl)amino]-2-(2-methylthiazol-4-yl)ethyl]phenyl}carbamate] gave an IC50 of less than 100 nM. `COc1ccc2c(c1)OCCn1c-2c(C2CCCCC2)c2ccc(C(=O)NC(C)(C)c3nc4cc(/C=C/C(=O)O)ccc4[nH]3)cc21` [Example 2-411, (E)-3-(2-{1-[(12-cyclohexyl-3-methoxy-6,7-dihydro-5-oxa-7a-azadibenzo[a,e]azulene-9-carbonyl)amino]-1-methylethyl}-1H-benzimidazol-5-yl)acrylic acid]: the IC50 is less than 100 nM.

`COc1ccc2c(c1)OCCn1c-2c(C2CCCCC2)c2ccc(C(=O)NC(C)(C)c3nc4cc(CCC(=O)O)ccc4[nH]3)cc21` [Example 2-412, 3-(2-{1-[(12-cyclohexyl-3-methoxy-6,7-dihydro-5-oxa-7a-azadibenzo[a,e]azulene-9-carbonyl)amino]-1-methylethyl}-1H-benzimidazol-5-yl)propionic acid] yielded an IC50 of less than 100 nM. The same measure for `COc1ccc2c(c1)OCCn1c-2c(C2CCCCC2)c2ccc(C(=O)NC3(c4nc5cc(CO)c(OC)cc5[nH]4)CCC3)cc21` [Example 2-413, N-[1-(5-hydroxymethyl-6-methoxy-1H-benzimidazol-2-yl)cyclobutyl]-12-cyclohexyl-3-methoxy-6,7-dihydro-5-oxa-7a-azadibenzo[a,e]azulene-9-carboxamide]: less than 100 nM; for `COc1ccc2c(c1)OCCn1c-2c(C2CCCCC2)c2ccc(C(=O)N[C@@H](Cc3ccc(N)cc3)c3csc(C)n3)cc21` [Example 2-414, N—[(S)-2-(4-aminophenyl)-1-(2-methylthiazol-4-yl)ethyl]-12-cyclohexyl-3-methoxy-6,7-dihydro-5-oxa-7a-azadibenzo[a,e]azulene-9-carboxamide]: less than 100 nM; for `COC(=O)Nc1ccc(C[C@H](NC(=O)c2ccc3c(C4CCCCC4)c4n(c3c2)CCOc2cc(OC)ccc2-4)c2csc(C)n2)cc1` [Example 2-415, methyl (4-[(S)-2-[(12-cyclohexyl-3-methoxy-6,7-dihydro-5-oxa-7a-azadibenzo[a,e]azulene-9-carbonyl)amino]-2-(2-methylthiazol-4-yl)ethyl]phenyl}carbamate]: less than 100 nM. Then `COc1ccc2c(c1)OCCn1c-2c(C2CCCCC2)c2ccc(C(=O)N[C@@H](Cc3ccc(O)cc3)C(=O)NC(C)(C)C(=O)O)cc21` [Example 2-416, 2-[(S)-2-[(12-cyclohexyl-3-methoxy-6,7-dihydro-5-oxa-7a-azadibenzo[a,e]azulene-9-carbonyl)amino]-3-(4-hydroxyphenyl)propionylamino]-2-methylpropionic acid], with less than 100 nM; and `COC(=O)COc1ccc2[nH]cc(C[C@H](NC(=O)c3ccc4c(C5CCCCC5)c5n(c4c3)CCOc3cc(OC)ccc3-5)c3csc(C)n3)c2c1` [Example 2-417, methyl {3-[(S)-2-[(12-cyclohexyl-3-methoxy-6,7-dihydro-5-oxa-7a-azadibenzo[a,e]azulene-9-carbonyl)amino]-2-(2-methylthiazol-4-yl)ethyl]-1H-indol-5-yloxy}acetate], with less than 100 nM; and `COc1ccc2c(c1)OCCn1c-2c(C2CCCCC2)c2ccc(C(=O)NC(C)(C)c3nc4ccc(C(=O)N5CCN(C)CC5)cc4[nH]3)cc21` [Example 2-418, N-(1-methyl-1-[6-(4-methylpiperazine-1-carbonyl)-1H-benzimidazol-2-yl]ethyl}-12-cyclohexyl-3-methoxy-6,7-dihydro-5-oxa-7a-azadibenzo[a,e]azulene-9-carboxamide], with less than 100 nM. The same measure for `COc1ccc2c(c1)OCCn1c-2c(C2CCCCC2)c2ccc(C(=O)NC(C)(C)c3nc4ccc(C(=O)N5CCOCC5)cc4[nH]3)cc21` [Example 2-419, N-(1-methyl-1-[6-(morpholine-4-carbonyl)-1H-benzimidazol-2-yl]ethyl}-12-cyclohexyl-3-methoxy-6,7-dihydro-5-oxa-7a-azadibenzo[a,e]azulene-9-carboxamide]: less than 100 nM. In turn, `COc1ccc2c(c1)OCCn1c-2c(C2CCCCC2)c2ccc(C(=O)NC3(c4nc5ccc(OCc6ccccc6)cc5[nH]4)CCC3)cc21` [Example 2-420, N-[1-(6-benzyloxy-1H-benzimidazol-2-yl)cyclobutyl]-12-cyclohexyl-3-methoxy-6,7-dihydro-5-oxa-7a-azadibenzo[a,e]azulene-9-carboxamide] came in with an IC50 of less than 100 nM. Consider `COc1ccc2c(c1)OCCn1c-2c(C2CCCCC2)c2ccc(C(=O)N[C@@H](Cc3c[nH]c4ccc(OCCO)cc34)c3csc(C)n3)cc21` [Example 2-421, N—[(S)-2-[5-(2-hydroxyethoxy)-1H-indol-3-yl]-1-(2-methylthiazol-4-yl)ethyl]-12-cyclohexyl-3-methoxy-6,7-dihydro-5-oxa-7a-azadibenzo[a,e]azulene-9-carboxamide], for which the IC50 was less than 100 nM. The same measure for `COc1ccc2c(c1)OCCn1c-2c(C2CCCCC2)c2ccc(C(=O)NC(C)(C)c3ccc(/C=C/C(=O)O)cc3)cc21` [Example 2-422, (E)-3-(4-{1-[(12-cyclohexyl-3-methoxy-6,7-dihydro-5-oxa-7a-azadibenzo[a,e]azulene-9-carbonyl)amino]-1-methylethyl}phenyl)acrylic acid]: less than 100 nM. Regarding `COc1ccc2c(c1)OCCn1c-2c(C2CCCCC2)c2ccc(C(=O)NC(C)(C)c3ccc(CCC(=O)O)cc3)cc21` [Example 2-423, 3-(4-{1-[(12-cyclohexyl-3-methoxy-6,7-dihydro-5-oxa-7a-azadibenzo[a,e]azulene-9-carbonyl)amino]-1-methylethyl}phenyl)propionic acid], the concentration for half-maximal inhibition (IC50) was less than 100 nM.

`COCCCOc1ccc(C[C@H](NC(=O)c2ccc3c(C4CCCCC4)c4n(c3c2)CCOc2cc(OC)ccc2-4)C(=O)OC)cc1` [Example 2-424, methyl (S)-2-[(12-cyclohexyl-3-methoxy-6,7-dihydro-5-oxa-7a-azadibenzo[a,e]azulene-9-carbonyl)amino]-3-[4-(3-methoxypropoxy)phenyl]propionate]: the half-inhibitory concentration (IC50) was less than 100 nM.

In turn, `COc1ccc2c(c1)OCCn1c-2c(C2CCCCC2)c2ccc(C(=O)N[C@@H](Cc3ccc(NC(=O)N(C)C)cc3)C(=O)O)cc21` [Example 2-425, (S)-2-[(12-cyclohexyl-3-methoxy-6,7-dihydro-5-oxa-7a-azadibenzo[a,e]azulene-9-carbonyl)amino]-3-[4-(3,3-dimethylureido)phenyl]propionic acid] had an IC50 of less than 100 nM. Then `CONC(=O)[C@H](Cc1ccc(O)cc1)NC(=O)c1ccc2c(C3CCCCC3)c3n(c2c1)CCOc1cc(OC)ccc1-3` [Example 2-426, N—[(S)-2-(4-hydroxyphenyl)-1-(methoxycarbamoyl)ethyl]-12-cyclohexyl-3-methoxy-6,7-dihydro-5-oxa-7a-azadibenzo[a,e]azulene-9-carboxamide], with less than 100 nM.
